Patent US10660932B2, “Drug combinations and methods to stimulate embryonic-like regeneration to treat diabetes and other diseases” (UNIVERSITY OF SOUTHERN CALIFORNIA, priority 2016, dated 2020)

Tests used:
Format in all cases: cell-based
[1] = test system: human pancreatic islets from T1D subjects (T1DI); experiment: Human pancreatic islet treatments and qPCR, T1D islets (T1DI)
Method: (§1) To investigate how the fasting mimicking conditions affect Ngn3 expression and β-cell functions in human pancreatic cells, we performed ex vivo experiments using primary human pancreatic islets (FIG. 6A). Briefly, the pancreatic islets from healthy and T1D subjects (HI and T1DI, respectively) were cultured according to the manufacturer's instructions. The cultured islets were then treated with serum from subjects enrolled in a clinical trial testing the effects of a low protein and low calorie FMD lasting 5 days (NCT02158897)^17. Serum samples were collected at baseline and at day 5 of the fasting mimicking diet in 5 subjects.
(§2) In cells from normal human subjects, these effects were reversed by IGF-1 treatment (FIG. 6G). […]
(§3) Cells were treated for 36 h with: Standard medium: Celprogen, M35002-045 for healthy islets and M35001-035 for T1D islets). […] Total RNA was extracted using RNeasy Mini kit (Qiagen) according to the manufacturer's instructions and quantified with the use of the Nanodrop system (Thermo Scientific, Waltham, Mass., USA). […] The expression level were analyzed by quantitative real-time polymerase chain reaction (PCR) on a Roche LightCycler 480II . Gene expression was quantified using the comparative Ct method.

[2] = test system: human pancreatic islets from healthy subjects (HI); experiment: Human pancreatic islet treatments and qPCR, healthy islets (HI); conditions: cells from normal human subjects, STS medium with IGF-1 40 ng/ml
Method: as §1, §2, §3

PKA = PKA activity in human pancreatic islets; conditions: STS medium with IGF-1 40 ng/ml
Method: It also dampened the activity of mTOR, which is a key mediator of amino acid signaling (FIG. 6I). To further investigate the role of these nutrient sensing signaling pathways in regulating the expression of lineage markers (i.e. Sox2 and Ngn3), we tested the role of the Tor-S6K and PKA pathways, which function downstream of IGF-1, in the reprogramming of pancreatic cells. Human pancreatic islets cultured in standard medium were treated with rapamycin, which inhibits mTOR, and H89, which inhibits PKA. mTOR and PKA were implicated by our group and others in the regeneration of other cell types (Cheng et al., 2014; Yilmaz et al., 2012).
as §3
PKA activity was measured using the PKA kinase activity kit (Enzo Life Science, Inc. Farmingdale, N.Y., USA) according to manufacturer instructions.

Row | Compound | expression of lineage markers Sox2 and Ngn3 ([1]; T1DI in standard medium, 36 h, Rapamycin 20 nM, H89 20 uM) | effect on STS-induced expression of Sox2, Ngn3 and insulin [2] | effect on STS-increased insulin and Sox 2 gene expression ([1]; human T1D cells, STS medium with IGF-1 40 ng/ml) | effect on STS-reduced PKA activity (PKA; T1D human islets) | effect on STS-reduced PKA activity (PKA; healthy human islets)
1 | O=S(=O)(NCCNC/C=C/c1ccc(Br)cc1)c1cccc2cnccc12 [H89, reference compound] | not induced | – | – | – | –
2 | IGF-1: IGF1 (40 ng/ml) (ProSpec), growth factor added to STS medium | – | reversed | reversed | reversed | reversed
